# In patent publication US20150056191A1, “IGF1 BIOMARKER FOR IGF1R INHIBITOR THERAPY” (MERCK SHARP & DOHME CORP., priority 2012, published 2015):
# Entries after “also recorded” stand apart in the source; their conditions may differ. Where two headings read alike, the source gives them in different places.
# Assays:
# H2122 NSCLC cells = assay: H2122 cell growth with and without IGF1 (Cell Titer-Glo); format: cell-based; settings: 10 ug/ml MK-0646, 96 hours, 2% fetal calf serum
# Method: H2122 cells were obtained from the American Type Culture Collection (ATCC) and propagated according to the conditions provided by ATCC in media at 37° C. H2122 cells in low serum (2% fetal calf serum (Hyclone), at 2000 cells/well, were plated in a 96 well plate and incubated with 10 ug/ml MK-0646 or vehicle control for 96 hours in the presence or absence of IGF1 (10 ng; SIGMA). Cells were harvested at day 0 and day 4 and cell growth was measured by Cell Titer-Glo® ([…]) according to manufacturer instructions. The relative cell proliferation was calculated by normalizing to day 0 levels.
# IGF1 receptor = IGF1 receptor (Homo sapiens, UniProt P08069); assay: Blocking of IGF1 binding to the IGF1 receptor
# [1] = tested on: primary colorectal xenograft tumor models; assay: Primary colorectal xenograft tumor models, tumor growth inhibition; format: in vivo
# Method: Primary colorectal xenograft tumor models were established from 10 independent colorectal tumors obtained directly from cancer patients. The relative levels of IGF1RNA expression were determined by gene expression profiling using genomic microarrays. […] These preclinical data provided in vivo evidence that increase sensitivity to the anti-IGF1R antibody, MK-0646, was strongly associated with increase IGF1RNA expression in the primary tumors.
# [2] = cited from earlier work
substance,measurement,setting,value
MK-0646: anti-IGF1R monoclonal antibody dalotuzumab (MK0646; CAS no. 1005389-60-5),proliferation of H2122 cells,H2122 NSCLC cells; in the absence of IGF1,did not significantly alter
same,IGF1-dependent proliferation / relative cell growth of H2122 cells,H2122 NSCLC cells; in the presence of IGF1 (10 ng),statistically significant growth inhibition; also recorded: significantly blocked
same,blocking IGF1 ability to bind directly to the IGF1 receptor,IGF1 receptor,capable of blocking
same,tumor growth inhibition,[1]; the 2 colorectal xenograft models with increased IGF1 RNA expression,at least 50%
same,tumor growth inhibition,[1]; the 8 xenograft tumor models with low IGF1 expression,minimal or no tumor growth inhibition
same,MTD,[2]; with G alone,10 mg/kg
same,MTD,[2]; with Gemcitabine (G) and Erlotinib (E),5 mg/kg
